Laboratory results published in patent US20260317320A1, “C5AR1 ANTAGONISTS AND USES THEREOF” (Vanqua Bio, Inc., priority 2022, published 2026).
pIC50: −log10 of the molar value. Read-outs that look alike come from different tables or passages of the source.

How the values were obtained:
[1] = target: T1, complement C5a receptor 1 (C5aR1) (Homo sapiens, UniProt P21730); assay: β-arrestin recruitment via C5aR1 activation in live CHO-K1 cells (PathHunter), agonist mode; format: cell-based
T1 construct: β-galactosidase fragment (PathHunter enzyme complementation); host or cells: CHO-K1 (PathHunter CHO-K1 C5aR1 β-arrestin cell line)
T1 sequence (P21730 1-350): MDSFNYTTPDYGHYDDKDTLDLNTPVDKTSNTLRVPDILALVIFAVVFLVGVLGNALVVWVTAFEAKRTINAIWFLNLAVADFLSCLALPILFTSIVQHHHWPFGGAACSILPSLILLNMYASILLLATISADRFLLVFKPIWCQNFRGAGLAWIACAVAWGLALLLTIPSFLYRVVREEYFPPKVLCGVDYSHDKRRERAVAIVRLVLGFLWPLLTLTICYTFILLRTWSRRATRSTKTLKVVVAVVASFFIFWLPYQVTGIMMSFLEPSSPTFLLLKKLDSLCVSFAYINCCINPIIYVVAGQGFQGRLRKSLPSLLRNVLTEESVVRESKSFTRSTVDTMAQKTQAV
Outline: (§1)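 β-arrestin recruitment to C5aR1 in CHO-K1 cells is detected by enzyme-fragment complementation. Antagonism is measured against recombinant hC5a at its EC90; agonism is measured with compound alone. Potencies are grouped into IC50 categories.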

[2] = target: T1, complement C5a receptor 1 (C5aR1); assay: β-arrestin recruitment via C5aR1 activation in live CHO-K1 cells (PathHunter), antagonist mode; format: cell-based; conditions: antagonist mode; recombinant hC5a (EC90) as competing natural agonist; live CHO-K1 cells; read-out: [Antagonist] B-arrestin2 recruitment: Average IC50
Outline: as §1

[Agonist] B-arrestin2 recruitment: Average EC50 (nM) ([1]; at 10 μM) | pIC50 [2] | [Agonist] B-arrestin2 recruitment: Average EC50 (nM) [1] | SMILES
Non-Active at 10 μM | 5.30 to 6.30 | – | Cc1cnc2cc([C@H]3CC[C@@H](c4c(C)cccc4F)CC3)c(=O)n(Cc3nccnc3OC(F)F)c2n1 [168A, 5-((3-(Difluoromethoxy)pyrazin-2-yl)methyl)-7-((1s,4s)-4-(2-fluoro-6-methylphenyl)cyclohexyl)-3-methylpyrido[2,3-b]pyrazin-6(5H)-one]
– | > 6.30 | Non-Active | Cc1ccc2cc([C@H]3CC[C@H](c4c(C)cccc4F)CC3)c(=O)n(Cc3ncccc3CC(F)F)c2n1 [compound 268, 1-{[3-(2,2-Difluoroethyl)-2-pyridyl]methyl}-7-methyl-3-[(1r,4r)-4-(2-fluoro-6-tolyl)cyclohexyl]-1,8-diaza-2(1H)-naphthalenone]
– | > 6.30 | Non-Active | Cc1ccc2cc([C@H]3CC[C@H](c4c(C)cccc4F)CC3)c(=O)n(Cc3ncccc3OC(F)(F)F)c2n1 [compound 196, 3-((1r,4r)-4-(2-Fluoro-6-methylphenyl)cyclohexyl)-7-methyl-1-((3-(trifluoromethoxy)pyridin-2-yl)methyl)-1,8-naphthyridin-2(1H)-one]
– | > 6.30 | Non-Active | Cc1cnc2cc([C@H]3CC[C@H](c4c(C)cccc4F)CC3)c(=O)n(Cc3ncccc3C(C)(F)F)c2n1 [compound 177, 5-((3-(1,1-Difluoroethyl)pyridin-2-yl)methyl)-7-((1r,4r)-4-(2-fluoro-6-methylphenyl)cyclohexyl)-3-methylpyrido[2,3-b]pyrazin-6(5H)-one]
Non-Active at 10 μM | 5.30 to 6.30 | – | Cc1cnc2cc([C@@H]3CC[C@@H](c4c(C)cccc4F)C3)c(=O)n(Cc3ncccc3C(F)F)c2n1 [187D, 5-((3-(Difluoromethyl)pyridin-2-yl)methyl)-7-((1R,3R)-3-(2-fluoro-6-methylphenyl)cyclopentyl)-3-methylpyrido[2,3-b]pyrazin-6(5H)-one]
– | 5.30 to 6.30 | Non-Active | Cc1cccc(F)c1N1CC(c2cc3nccnc3n(Cc3ncccc3C(F)(F)F)c2=O)C1 [compound 48, 7-(1-(2-Fluoro-6-methylphenyl)azetidin-3-yl)-5-((3-(trifluoromethyl)pyridin-2-yl)methyl)pyrido[2,3-b]pyrazin-6(5H)-one]
Non-Active at 10 μM | > 6.30 | – | CCc1cnc2c(cc([C@H]3CC[C@H](c4c(C)cccc4F)CC3)c(=O)n2Cc2ncccc2OC(F)(F)F)n1 [compound 215, 2-Ethyl-7-((1r,4r)-4-(2-fluoro-6-methylphenyl)cyclohexyl)-5-((3-(trifluoromethoxy)pyridin-2-yl)methyl)pyrido[2,3-b]pyrazin-6(5H)-one]
